Consider two compounds from patent publication US10092523B2, “Long acting pharmaceutical compositions” (priority 2014, dated 2018).

In brackets after ≈: the same amount, converted by molar mass.

Assay [1] has as its system HIV. The following applies: cited from earlier work.
The subject of assay [2] is HIV. Kind of assay: human protein adjusted IC90. Format: cell-based. Conditions: Human immunodeficiency virus 1; reference line in FIG. 1 and FIG. 2.

Take `C=C(C)[C@@H]1CC[C@]2(C(=O)O)CC[C@]3(C)[C@H](CC[C@@H]4[C@@]5(C)CC[C@H](OC(=O)CC(C)(C)C(=O)O)C(C)(C)[C@@H]5CC[C@]43C)[C@@H]12` [Bevirimat]: in assay [1] (patients with trough levels >=20 μg/mL and without key baseline Gag polymorphisms at Q369, V370 or T371), the “reduced HIV viral load by a mean of” value is on record as 1.3 log10/mL. Moreover, the “HIV viral load reduction versus patients without Gag polymorphisms” value in assay [1] (users with Gag polymorphisms at Q369, V370 or T371) is recorded as “significantly lower load reductions”. In assay [2], `CC(C)C1=C2[C@H]3CC[C@@H]4[C@@]5(C)CC[C@H](OC(=O)CC(C)(C)C(=O)O)C(C)(C)[C@@H]5CC[C@@]4(C)[C@]3(C)CC[C@@]2([C@@H](O)CN(CCN(C)C)Cc2ccc(Cl)cc2)CC1=O` [first compound, 4-(((3aR,5aR,5bR,7aR,9S,11aR,11bR,13aS)-3a-((R)-2-((4-Chlorobenzyl)(2-(dimethylamino)ethyl)amino)-1-hydroxyethyl)-1-isopropyl-5a,5b,8,8,11a-pentamethyl-2-oxo-3,3a,4,5,5a,5b, 6,7,7a,8,9,10,11,11a,11b,12,13,13a-octadecahydro-2H-cyclopenta[a]chrysen-9-yl)oxy)-2,2-dimethyl-4-oxobutanoic acid] displayed a 90% effect concentration (IC90) of 4.31 ng/mL (≈ 5.32 nM).

Broadly, the IC90 is the concentration needed for an effect of 90%.
